{
  "source": "patent US20260227408A1",
  "about": "“Compositions and Methods for Modulation of Immune Responses” (Flagship Pioneering Innovations VI, LLC, priority 2022, published 2026)",
  "key": {"[1]": {"system": "Raji cells (human B cell lymphoma)", "assay": "pooled CRISPR KO screen: Raji cell killing by primary NK cells", "assay_type": "cell-based", "settings": "CRISPR KO of the protein in Raji cells, 24 hours co-culture with primary NK cells; for inhibitory effect on NK cytotoxicity (loss of function potentiates Raji cell killing): Example 5; for co-stimulatory effect on NK cytotoxicity (loss of function inhibits Raji cell killing): Example 4", "method": "CRISPR system was used to generate a pooled KO library comprising 4,708 individual novel proteins within 2,127 lncRNAs and 998 known proteins in Raji cells (human B cell lymphoma). To understand the role of these proteins in modulation of NK cell cytotoxicity we conducted a cell killing assay using primary human NK cells. We examined the change in the initial library representation in Raji cells with the library representation after 24 hours of co-incubation with NK cells. We used known regulators of NK cell cytotoxicity as reference to establish hit significance.\nCRISPR KO generation. CRISPR guide RNA library has been designed at ProFound Therapeutics to target 4,708 distinct predicted novel proteins localized within 2,127 lncRNA, 998 known proteins, including positive (inhibitors, for example B2M, TAP1, TAP2, HLA-DM) and negative (co-stimulators, for example, ICAM1, FAS, IL7, DGKE) of NK cell function, and 900 neutral controls (non-targeting and intergenic guide RNAs). The CRISPR guide RNA library was packaged into lentivirus, transduced into Raji Cas9 line at the MOI of 0.3 and selected using puromycin selection as described in [Sanjana N E, Shalem O, Zhang F. Nat. Methods. 2014 August; 11(8):783-4.\nNK isolation and expansion. Primary human NK cells were isolated from frozen PBMCs using EasySep human NK cell isolation kit (StemCell, catalog #17955). Primary human NK cells were expanded using immunoCult NK cell expansion kit (StemCell, catalog #100-0711) following manufacturer protocol.\nScreen setup. The screen was performed using 4 biological replicates. The NK cytotoxicity assay was performed by co-culturing 20 million Raji CRISPR KO library cells with 60 million primary NK cells for 24 hours in T75 tissue culture flask. NK cells were removed using positive CD56 selection kit (StemCell, catalog #17855). Dead cells were removed using EasySep dead cell removal (Annexin V) kit (StemCell, catalog #17899). Remaining Raji CRISPR KO library cells have been processed to extract genomic DNA. NGS library prep and illumina sequencing was performed on these cells and Raji cells prior to exposure to NK as described in [Sanjana N E, Shalem O, Zhang F. Nat. Methods. 2014 August; 11(8):783-4.\nData analysis. Screen analysis and interpretation was performed using ProFound Tx custom data analysis tools and confirmed with MAGeCK-VISPR as described in [Li W, Koster J, Xu H, Chen C H, Xiao T, Brown M, Liu S. Genome Biology 2015(281)].\nData analysis. Screen analysis and interpretation has been performed using ProFound Tx custom data analysis tools and confirmed with MAGeCK-VISPR as described in [Li W, Koster J, Xu H, Chen C H, Xiao T, Brown M, Liu S. Genome Biology 2015(281)]."}, "[2]": {"system": "Interferon Regulatory Factor (IRF) pathway in THP-1 dual reporter cells", "assay": "THP-1 dual reporter assay (IRF-Lucia luciferase) with TLR agonists", "assay_type": "cell-based", "method": "(§1) To determine the effect of the Target Protein on TLR activity, the Target Protein, irrelevant proteins and controls were applied+/−established TLR agonists to a commercial reporter cell line which monitors the two main signal transduction pathways that respond to TLR activation. To determine which immune cells are most responsive to the Target Proteins, the Target Proteins were applied to Peripheral Blood Mononuclear Cells (PBMCs) and then 24 hours later the PBMCs were subjected to single cell RNA-seq using cell hashing.\nDual Reporter Assay: From example: NF-kB-SEAP and IRF-Lucia luciferase reporter monocyte (THP1) cells (InvivoGen) are cultured in RPMI 1640 media supplemented with HEPES buffer (10 mM), sodium pyruvate (1 mM), glucose (4.5 g/L), fetal bovine serum (10%), penicillin (100 U/mL), streptomycin ([…]), and 2-mercaptoethanol (0.05 mM). THP1 cells are treated with 100 ng/mL LPS (Sigma-Aldrich) for 24 hrs, the target protein (final conc. 10 μM), or left untreated.\nAfter treatment, THP1 cells are cultured for 24 hrs and then assayed for reporter activity. Both reporter proteins are measurable in the cell culture supernatant when using QUANTI-Blue (InvivoGen), a SEAP detection reagent, and QUANTI-Luc (InvivoGen), a luciferase detection reagent. QUANTI-Blue is a colorimetric enzyme assay developed to determine any alkaline phosphatase activity in a biological sample, such as cell culture supernatant. QUANTI-Luc is a lyophilized assay reagent containing all the components required to quantitatively measure the activity of Lucia Luciferase other coelenterazine-utilizing luciferases. Increased reporter activity after treatment with target protein is observed in cells where the target protein is immune stimulating. Additionally, decreased reporter activity after treatment with the target protein is observed in cells where the target protein is immune dampening."}, "[3]": {"system": "Peripheral Blood Mononuclear Cells (PBMCs)", "assay": "single cell RNA-seq of PBMCs treated with target protein", "assay_type": "cell-based, human", "settings": "24 hours, vs scrambled protein control, FIG. 5A, 5B", "method": "as §1\nscRNA-seq: From example: Shifts in cell populations after treatment with Target Proteins are assessed by single cell RNA-seq (scRNA-seq). Target proteins (e.g., listed in the Sequence Listing) are synthesized through Fluorenylmethyloxycarbonyl (Fmoc) protection group chemistry using Solid Phase Peptide Synthesis (SPPS). Human primary blood mononuclear cells are seeded at […] in each well of 12-well plate with 1 ml of RPMI-1640 (10% FBS). […]\nPost sequencing, reads are aligned to the human reference genome (GENCODE34/GRCH38). Reads are demultiplexed using DNA-barcoded antibodies and run through quality control (g. doublets are removed, singlet cells are selected with less than 15% mitochondria contamination at RNA levels and reads contain higher than 500 genes). […]"}, "[4]": {"settings": "10 μM, 24 hours, vs scramble peptide, FIG. 4"}},
  "data": [
    {"molecule": "SEQ ID NO: 35586: novel inhibitory ligand that suppresses NK-mediated cytotoxicity; lncRNA encoded protein (MWQNLNGDISSLWVSSLLAFNQLFCLTAAGLGTAQPP; listed as Homo sapiens)", "values": [
      {"measurement": "inhibitory effect on NK cytotoxicity (loss of function potentiates Raji cell killing)", "setting": "[1]", "value": "strong phenotypes"}
    ]},
    {"molecule": "SEQ ID NO: 37413: Target Protein validated as a modulator of the innate immune response; toll-like receptor (TLR) inhibitor (MAAPSNKTELAWSPRLAA; listed as Homo sapiens)", "values": [
      {"measurement": "IRF response, co-treatment with TLR1/2 agonist", "setting": "[2]; [4]", "value": "inhibited"},
      {"measurement": "IRF response, co-treatment with TLR2 agonist", "setting": "[2]; [4]", "value": "no significant effect"},
      {"measurement": "IRF response, co-treatment with TLR3 agonist", "setting": "[2]; [4]", "value": "no significant effect"},
      {"measurement": "IRF response, co-treatment with TLR4 agonist", "setting": "[2]; [4]", "value": "inhibited"},
      {"measurement": "IRF response, co-treatment with TLR5 agonist", "setting": "[2]; [4]", "value": "no significant effect"},
      {"measurement": "IRF response, co-treatment with TLR6/2 agonist", "setting": "[2]; [4]", "value": "inhibited"},
      {"measurement": "IRF response, co-treatment with TLR7 agonist", "setting": "[2]; [4]", "value": "no significant effect"},
      {"measurement": "IRF response, co-treatment with TLR8 agonist", "setting": "[2]; [4]", "value": "no significant effect"},
      {"measurement": "IRF response, co-treatment with TLR9 agonist", "setting": "[2]; [4]", "value": "no significant effect"},
      {"measurement": "IRF signal transduction pathway response from several TLRs", "setting": "[2]; THP-1 dual reporter cells, FIG. 3, FIG. 4", "value": "significantly blocks"},
      {"measurement": "relative IRF activity (reporter gene expression)", "setting": "[2]; increasing peptide concentrations (0, 2.5, 5, 7.5, and 10 PM) in presence of LPS, 24 hours, FIG. 3", "value": "inhibition"},
      {"measurement": "effect on T-cells, B-cells, and NK-cells (up- and downregulated genes, scRNA-seq)", "setting": "[3]", "value": "relatively small effects"},
      {"measurement": "effect on active monocytes and dendritic cells (up- and downregulated genes, scRNA-seq)", "setting": "[3]", "value": "strongly affected"}
    ]},
    {"molecule": "SEQ ID NO: 33482: novel co-stimulatory ligand that potentiates NK-mediated cytotoxicity; lncRNA-encoded protein (VVTGSILLSLPITQHLPLKALPRPGLPPFKMSGSVQDLLLGHIALLGLVQVILPPQPPK; listed as Homo sapiens)", "values": [
      {"measurement": "co-stimulatory effect on NK cytotoxicity (loss of function inhibits Raji cell killing)", "setting": "[1]", "value": "strong phenotypes"}
    ]},
    {"molecule": "SEQ ID NO: 37776: novel co-stimulatory ligand that potentiates NK-mediated cytotoxicity; lncRNA-encoded protein (protein, listed as Homo sapiens) MACIYPTTFYTSLPTKSLNMGISLTTILILSVAVLLSTAAPPSCRECYQSLHYRGEMQQYFTYHTHIERSCYGNLIEECVESGKSYYKVKNLGVCGSRNGAICPRGKQWLCFTKIGQWGVNTQVLEDIKREQIIAKAKASKPTTPPENRPRHFHSFIQKL", "values": [
      {"measurement": "co-stimulatory effect on NK cytotoxicity (loss of function inhibits Raji cell killing)", "setting": "[1]", "value": "strong phenotypes"}
    ]},
    {"molecule": "SEQ ID NO: 2013: novel inhibitory ligand that suppresses NK-mediated cytotoxicity; lncRNA encoded protein (protein, listed as Homo sapiens) MLSEGKPIPRREGKTATTERTFAVPVWKEIGISWRGLASTAGLFKSSTSILEENNADSRKMACHFGMCLAALLIKGKVLFFTF", "values": [
      {"measurement": "inhibitory effect on NK cytotoxicity (loss of function potentiates Raji cell killing)", "setting": "[1]", "value": "strong phenotypes"}
    ]},
    {"molecule": "SEQ ID NO: 35050: novel co-stimulatory ligand that potentiates NK-mediated cytotoxicity; lncRNA-encoded protein (protein, listed as Homo sapiens) IYAHVGTEESSVVAMFSPQELTGEGMGQDPSLCKASVTVMFQVFLMTVCLYLTVLLTNNLLGSKGQHLLSKAQEEFEEN", "values": [
      {"measurement": "co-stimulatory effect on NK cytotoxicity (loss of function inhibits Raji cell killing)", "setting": "[1]", "value": "strong phenotypes"}
    ]},
    {"molecule": "SEQ ID NO: 36545: novel inhibitory ligand that suppresses NK-mediated cytotoxicity; lncRNA encoded protein (protein, listed as Homo sapiens) MPEDLLFLDAAAQGLYFMLWLLSFELSVAVSELLRFTGPWRILSYTVHWVLDMQSVPFIAFLENNN", "values": [
      {"measurement": "inhibitory effect on NK cytotoxicity (loss of function potentiates Raji cell killing)", "setting": "[1]", "value": "strong phenotypes"}
    ]}
  ]
}
